Results published in the supplement of paper PMC9663587.

How the values were obtained:
[1] = compound: CN(C)C/C=C/C(=O)Nc1ccc(C(=O)N2CCC[C@@H](Nc3ncc(Cl)c(-c4c[nH]c5ccccc45)n3)C2)cc1 [THZ531]; assay: GR value, 72 h; higher = faster growth (1 = untreated, <0 = killing);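 also: breast cancer and non-malignant breast epithelial lines, nine half-log doses, viable cells counted by Hoechst and LIVE/DEAD dye imaging versus time-zero plates and DMSO controls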
[2] = compound: CCN1CCN(Cc2ccc(Nc3ncc(F)c(-c4cc(F)c5nc(C)n(C(C)C)c5c4)n3)nc2)CC1; assay: as above
[3] = compound: C=CC(=O)Nc1ccc(C(=O)Nc2[nH]nc3c2CN(C(=O)N[C@H](CN(C)C)c2ccccc2)C3(C)C)cc1 [YKL-5-124]; assay: as above
[4] = compound: CN(C)C(=O)c1cc2cnc(Nc3ccc(N4CCNCC4)cn3)nc2n1C1CCCC1 [LEE011/Ribociclib]; assay: as above
[5] = compound: CCc1cnn2c(NCc3ccc[n+]([O-])c3)cc(N3CCCC[C@H]3CCO)nc12; assay: as above
[6] = compound: T1, CC(=O)c1c(C)c2cnc(Nc3ccc(N4CCN(CCOCCOCCOCCNC(=O)COc5cccc6c5C(=O)N(C5CCC(=O)NC5=O)C6=O)CC4)cn3)nc2n(C2CCCC2)c1=O [BSJ-03-123]; assay: as above
[7] = compound: T2, CN1CC[C@H](c2c(O)cc(O)c3c(=O)cc(-c4ccccc4Cl)oc23)[C@H](O)C1 [Flavopiridol]; assay: as above
[8] = compound: CN(C)C/C=C/C(=O)Nc1ccc(C(=O)Nc2cccc(Nc3ncc(Cl)c(-c4c[nH]c5ccccc45)n3)c2)cc1 [THZ1]; assay: as above
[9] = compound: CCOc1cc2ncc(C#N)c(Nc3ccc(OCc4ccccn4)c(Cl)c3)c2cc1NC(=O)/C=C/CN(C)C [Neratinib/HKI272]
[10] = compound: CC(C)Nc1cc(-c2c[nH]c(C(=O)N[C@H](CO)c3cccc(Cl)c3)c2)c(Cl)cn1 [BVD523]
[11] = compound: CCC1=CN=CN=C1N2CCN(CC2)CC3=NC4=C(N3)C=C(C=C4)C(F)(F)F
[12] = compound: CC(=O)O[C@H]1C(=O)[C@@]2(C)[C@H]([C@H](OC(=O)c3ccccc3)[C@]3(O)C[C@H](OC(=O)[C@H](O)[C@@H](NC(=O)c4ccccc4)c4ccccc4)C(C)=C1C3(C)C)[C@]1(OC(C)=O)CO[C@@H]1C[C@@H]2O [Paclitaxel]
[13] = compound: NC1(C(=O)N[C@@H](CCO)c2ccc(Cl)cc2)CCN(c2nc[nH]c3nccc2-3)CC1 [AZD5363]
[14] = compound: T1, BSJ-03-123
[15] = compound: T2, Flavopiridol
[16] = compound: C1=CC2=C(C=CC(=C2)C=C3C(=O)NC(=NCC4=CC=CS4)S3)N=C1 [R0-3306]
[17] = compound: CO[C@@H](C)Cn1c(=O)n(C)c2cnc3ccc(-c4cncc(C(C)(C)O)c4)cc3c21
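For GR50, 72 h in this document: breast cancer and non-malignant breast epithelial cell lines, Deep Dye Drop or Dye Drop imaging, nine half-log doses, GR normalized to time-zero plates and DMSO-only controls.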

MCF10A
GR value ([1]; 0.0001 µM): 0.985 GR | GR value ([1]; 0.0003162 µM): 0.995 GR | GR value ([1]; 0.001 µM): 1.01 GR | GR value ([1]; 0.003162 µM): 1 GR | GR value ([1]; 0.01 µM): 1.01 GR | GR value ([1]; 0.03162 µM): 0.981 GR | GR value ([1]; 0.1 µM): 0.903 GR | GR value ([1]; 0.3162 µM): 0.612 GR | GR value ([1]; 1 µM): -0.625 GR | GR value ([2]; 0.001 µM): 0.981 GR | GR value ([2]; 0.003162 µM): 0.95 GR | GR value ([2]; 0.01 µM): 0.882 GR | GR value ([2]; 0.03162 µM): 0.78 GR | GR value ([2]; 0.1 µM): 0.665 GR | GR value ([2]; 0.3162 µM): 0.543 GR | GR value ([2]; 1 µM): 0.364 GR | GR value ([2]; 3.162 µM): 0.255 GR | GR value ([2]; 10 µM): 0.159 GR | GR value ([3]; 0.001 µM): 0.472 GR | GR value ([3]; 0.003162 µM): 0.235 GR | GR value ([3]; 0.01 µM): 0.149 GR | GR value ([3]; 0.03162 µM): 0.0788 GR | GR value ([3]; 0.1 µM): 0.0321 GR | GR value ([3]; 0.3162 µM): 0.0253 GR | GR value ([3]; 1 µM): 0.0094 GR | GR value ([3]; 3.162 µM): -0.0385 GR | GR value ([3]; 10 µM): -0.153 GR | GR value ([4]; 0.001 µM): 0.91 GR | GR value ([4]; 0.003162 µM): 0.888 GR | GR value ([4]; 0.01 µM): 0.821 GR | GR value ([4]; 0.03162 µM): 0.781 GR | GR value ([4]; 0.1 µM): 0.79 GR | GR value ([4]; 0.3162 µM): 0.756 GR | GR value ([4]; 1 µM): 0.732 GR | GR value ([4]; 3.162 µM): 0.665 GR | GR value ([4]; 10 µM): 0.434 GR | GR value ([5]; 0.0001 µM): 1.01 GR | GR value ([5]; 0.0003162 µM): 1.01 GR | GR value ([5]; 0.001 µM): 1.02 GR | GR value ([5]; 0.003162 µM): 1.04 GR | GR value ([5]; 0.01 µM): 0.958 GR | GR value ([5]; 0.03162 µM): -0.188 GR | GR value ([5]; 0.1 µM): -0.226 GR | GR value ([5]; 0.3162 µM): -0.223 GR | GR value ([5]; 1 µM): -0.223 GR | GR value ([6]; 0.001 µM): 0.915 GR | GR value ([6]; 0.003162 µM): 0.877 GR | GR value ([6]; 0.01 µM): 0.81 GR | GR value ([6]; 0.03162 µM): 0.76 GR | GR value ([6]; 0.1 µM): 0.736 GR | GR value ([6]; 0.3162 µM): 0.708 GR | GR value ([6]; 1 µM): 0.577 GR | GR value ([6]; 3.162 µM): 0.502 GR | GR value ([6]; 10 µM): -0.113 GR | GR value ([7]; 0.0001 µM): 1.01 GR | GR value ([7]; 0.0003162 µM): 1.01 GR | GR value ([7]; 0.001 µM): 1.03 GR | GR value ([7]; 0.003162 µM): 1.03 GR | GR value ([7]; 0.01 µM): 1.04 GR | GR value ([7]; 0.03162 µM): 1.03 GR | GR value ([7]; 0.1 µM): 0.822 GR | GR value ([7]; 0.3162 µM): -0.322 GR | GR value ([7]; 1 µM): -0.67 GR | GR value ([8]; 0.0001 µM): 0.995 GR | GR value ([8]; 0.0003162 µM): 1.01 GR | GR value ([8]; 0.001 µM): 0.985 GR | GR value ([8]; 0.003162 µM): 0.992 GR | GR value ([8]; 0.01 µM): 0.896 GR | GR value ([8]; 0.03162 µM): 0.69 GR | GR value ([8]; 0.1 µM): 0.32 GR | GR value ([8]; 0.3162 µM): -0.0551 GR | GR value ([8]; 1 µM): -0.563 GR | GR50, 72 h [9]: 0.102 µM | GR50, 72 h [10]: 1.28 µM | GR50, 72 h [11]: > 10 µM | GR50, 72 h [12]: 0.00268 µM | GR50, 72 h [13]: > 10 µM | GR50, 72 h [14]: 1.09 µM | GR50, 72 h [15]: 0.152 µM | GR50, 72 h [16]: 5.9 µM | GR50, 72 h [17]: 0.163 µM
